Data on three molecules can be found in the NIST ThermoML archive (doi:10.1016/j.jct.2012.05.020).

Numbers after ± are expanded uncertainties.

For this data set the following is noted: 101.33 kPa, Liquid, Vibrating tube method.

Consider `CCOS(=O)(=O)[O-].CCn1cc[n+](C)c1` [1-ethyl-3-methylimidazolium ethyl sulfate], for which the mass density stood at 1240.25 ± 0.16 kg/m3 (293.16 K); 1236.81 ± 0.16 kg/m3 (298.15 K); 1233.39 ± 0.16 kg/m3 (303.15 K); 1229.98 ± 0.15 kg/m3 (308.15 K); 1226.59 ± 0.15 kg/m3 (313.15 K); 1223.22 ± 0.15 kg/m3 (318.15 K). For the same molecule, for the setting “323.18 K”, the mass density came out at 1219.84 ± 0.15 kg/m3.
As for `CCCCCCCC[N+](C)(CCCCCCCC)CCCCCCCC.O=[N+]([O-])[O-]` [N-methyl-N,N,N-trioctylammonium nitrate], the mass density by setting is: (293.16 K) 915.29 ± 2.9 kg/m3; (298.14 K) 912.33 ± 2.9 kg/m3; (303.14 K) 909.37 ± 2.9 kg/m3; (308.14 K) 906.41 ± 2.8 kg/m3; (313.14 K) 903.43 ± 2.8 kg/m3; (318.14 K) 900.5 ± 2.8 kg/m3. Also, the mass density reads like this: (323.14 K) 897.58 ± 2.8 kg/m3; (328.14 K) 894.67 ± 2.8 kg/m3; (333.14 K) 891.76 ± 2.8 kg/m3; (338.14 K) 888.84 ± 2.7 kg/m3; (343.14 K) 885.93 ± 2.7 kg/m3.
As to `CCCCCCCC[N+](C)(CCCCCCCC)CCCCCCCC.[Cl-]` [N-methyl-N,N-dioctyl-1-octanaminium chloride], the mass density is, setting by setting: (293.15 K) 889.47 ± 2.7 kg/m3; (298.14 K) 886.45 ± 2.7 kg/m3; (303.14 K) 883.43 ± 2.7 kg/m3; (308.14 K) 880.41 ± 2.7 kg/m3; (313.14 K) 877.37 ± 2.7 kg/m3; (318.14 K) 874.35 ± 2.6 kg/m3. Further, the mass density (323.14 K) was determined as 871.36 ± 2.6 kg/m3; the mass density (328.14 K) worked out at 868.37 ± 2.6 kg/m3; the mass density (333.14 K) stood at 865.37 ± 2.6 kg/m3; the mass density (338.14 K) was determined as 862.37 ± 2.6 kg/m3; the mass density (343.14 K) is 859.36 ± 2.6 kg/m3.

As usually defined, the mass density is the mass of a sample divided by its volume.
